# Molecular target: T1, human plasma kallikrein (Homo sapiens (Human), UniProt P03952)
# Assay: biochemical
# Conditions: not given
# T1 sequence (P03952 whole entry, looked up): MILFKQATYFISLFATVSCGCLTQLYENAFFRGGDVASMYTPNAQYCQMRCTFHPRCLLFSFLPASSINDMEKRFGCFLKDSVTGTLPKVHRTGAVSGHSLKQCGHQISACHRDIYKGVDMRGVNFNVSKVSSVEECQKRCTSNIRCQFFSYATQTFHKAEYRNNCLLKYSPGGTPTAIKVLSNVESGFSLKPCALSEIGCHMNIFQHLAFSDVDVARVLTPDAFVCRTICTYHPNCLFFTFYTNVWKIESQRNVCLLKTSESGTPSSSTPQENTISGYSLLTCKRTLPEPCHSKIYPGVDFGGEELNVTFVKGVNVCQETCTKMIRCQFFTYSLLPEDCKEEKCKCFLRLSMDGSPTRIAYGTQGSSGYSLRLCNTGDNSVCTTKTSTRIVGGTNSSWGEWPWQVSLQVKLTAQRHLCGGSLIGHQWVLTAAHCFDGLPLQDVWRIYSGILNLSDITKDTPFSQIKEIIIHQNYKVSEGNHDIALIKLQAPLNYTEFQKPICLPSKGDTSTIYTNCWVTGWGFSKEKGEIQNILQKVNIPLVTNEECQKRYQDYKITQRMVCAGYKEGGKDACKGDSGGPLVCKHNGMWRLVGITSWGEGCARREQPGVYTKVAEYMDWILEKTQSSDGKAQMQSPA
# T1 sequence (P03952 whole entry partner, looked up): as the sequence (P03952 whole entry, looked up) above
row,SMILES,IC50 [nM]
1,"Cc1cc(N)nc(C)c1CNC(=O)c1cnn(Cc2ccc3ncc(Cl)cc3c2)c1 [Example 173, N-((6-Amino-2,4-dimethylpyridin-3-yl)methyl)-1-((3-chloroquinolin-6-yl)methyl)-1H-pyrazole-4-carboxamide]",0.4
2,"Cc1cc(N)nc(C)c1CNC(=O)c1cnn(Cc2cccc(CO)n2)c1 [Example 99, N-((6-amino-2,4-dimethylpyridin-3-yl)methyl)-1-((6-(hydroxymethyl)pyridin-2-yl)methyl)-1H-pyrazole-4-carboxamide]",7000
3,"Cc1cc(N)nc(C)c1CNC(=O)c1cnn(Cc2nc3ccccc3nc2C)c1 [Example 104, N-((6-amino-2,4-dimethylpyridin-3-yl)methyl)-1-((3-methylquinoxalin-2-yl)methyl)-1H-pyrazole-4-carboxamide]",113

# Same assay, conditions: read-out: % inhibition at 100 μM
row,SMILES,inhibition at 100 µM [%]
1,"Cc1cc(N)nc(C)c1CNC(=O)c1c(C)c(C)n(S(=O)(=O)c2ccccc2)c1C [Example 183, N-((6-Amino-2,4-dimethylpyridin-3-yl)methyl)-2,4,5-trimethyl-1-(Phenylsulfonyl)-1H-pyrrole-3-carboxamide]",39
2,"Nc1ccc(CNC(=O)c2cnn(Cc3ccccc3)c2)cn1 [Example 182, N-((6-Aminopyridin-3-yl)methyl)-1-benzyl-1H-pyrazole-4-carboxamide]",38

# Molecular target: T1, human plasma kallikrein
# Assay: not given
# Conditions: human plasma kallikrein 25 pM, substrate 0.5 uM, 1 hour pre-incubation at room temperature, read at t=60 min
row,SMILES,IC50 [nM]
1,"Cc1cc(N)nc(C)c1CNC(=O)c1c(C)c(C)n(S(=O)(=O)c2ccccc2)c1C [Example 183, N-((6-Amino-2,4-dimethylpyridin-3-yl)methyl)-2,4,5-trimethyl-1-(Phenylsulfonyl)-1H-pyrrole-3-carboxamide]",> 100000
2,"Cc1cc(N)nc(C)c1CNC(=O)c1cnn(Cc2ccc3[nH]c(C)c(C)c3c2)c1 [Example 75, N-((6-amino-2,4-dimethylpyridin-3-yl)methyl)-1-((2,3-dimethyl-1H-indol-5-yl)methyl)-1H-pyrazole-4-carboxamide]",3.1
3,"Cc1cc(N)nc(C)c1CNC(=O)c1cc(Cc2ccccc2)no1 [Example 3, N-((6-amino-2,4-dimethylpyridin-3-yl)methyl)-3-benzylisoxazole-5-carboxamide]",2260
4,"Cc1cc(N)nc(C)c1CNC(=O)c1cnn(Cc2ccc(CN3C(=O)CCC3=O)cc2)c1 [Example 17, N-((6-amino-2,4-dimethylpyridin-3-yl)methyl)-1-(4-((2,5-dioxopyrrolidin-1-yl)methyl)benzyl)-1H-pyrazole-4-carboxamide]",98
5,"Cc1cc(N)nc(C)c1CNC(=O)c1cc(C)n(C(C)c2ccccc2)c1C (stereo not drawn) [Example 51, N-((6-amino-2,4-dimethylpyridin-3-yl)methyl)-2,5-dimethyl-1-(1-phenylethyl)-1H-pyrrole-3-carboxamide]",7000
6,"Cc1cc(N)nc(C)c1CNC(=O)c1cnn(Cc2ccc(N3CCCC3=O)cc2)c1 [Example 65, N-((6-amino-2,4-dimethylpyridin-3-yl)methyl)-1-(4-(2-oxopyrrolidin-1-yl)benzyl)-1H-pyrazole-4-carboxamide]",29
7,"Cc1cc(N)nc(C)c1CNC(=O)c1cnn(Cc2ccc3c(c2)N(C)CCC3)c1 [Example 152, N-((6-Amino-2,4-dimethylpyridin-3-yl)methyl)-1-((1-methyl-1,2,3,4-tetrahydroquinolin-7-yl)methyl)-1H-pyrazole-4-carboxamide]",4
8,"Cc1cc(N)nc(C)c1CNC(=O)c1cn(Cc2cccc(C#N)c2)nn1 [Example 54, N-((6-amino-2,4-dimethylpyridin-3-yl)methyl)-1-(3-cyanobenzyl)-1H-1,2,3-triazole-4-carboxamide]",1800
9,"Cc1ccc2cc(Cn3cc(C(=O)NCc4ccc(N)nc4C)cn3)ccc2n1 [Example 159, N-((6-amino-2-methylpyridin-3-yl)methyl)-1-((2-methylquinolin-6-yl)methyl)-1H-pyrazole-4-carboxamide]",7
10,"Cc1cc(N)nc(C)c1CNC(=O)c1cn(Cc2ccc(Oc3ccccc3)cc2)cn1 [Example 23, N-((6-amino-2,4-dimethylpyridin-3-yl)methyl)-1-(4-phenoxybenzyl)-1H-imidazole-4-carboxamide]",9
11,"Cc1cc(N)nc(C)c1CNC(=O)c1nc(Cc2ccccc2)no1 [Example 5, N-((6-amino-2,4-dimethylpyridin-3-yl)methyl)-3-benzyl-1,2,4-oxadiazole-5-carboxamide]",4500
12,"Cc1cc(N)nc(C)c1CNC(=O)c1cnn(CC2CCCCC2)c1 [Example 88, N-((6-amino-2,4-dimethylpyridin-3-yl)methyl)-1-(cyclohexylmethyl)-1H-pyrazole-4-carboxamide]",1800
13,"Cc1cc(N)nc(C)c1CNC(=O)c1nnc(Cc2ccccc2)o1 [Example 4, N-((6-amino-2,4-dimethylpyridin-3-yl)methyl)-5-benzyl-1,3,4-oxadiazole-2-carboxamide]",7600
14,"Cc1cc(N)nc(C)c1CNC(=O)c1cnn(Cc2ccc(NC(=O)NC3CC3)cc2)c1 [Example 112, N-((6-amino-2,4-dimethylpyridin-3-yl)methyl)-1-(4-(3-cyclopropylureido)benzyl)-1H-pyrazole-4-carboxamide]",229
15,"Cc1cc(N)nc(C)c1CNC(=O)c1nc(Cc2ccc(-c3ccccc3)cc2)n[nH]1 [Example 124, N-((6-amino-2,4-dimethylpyridin-3-yl)methyl)-3-(biphenyl-4-ylmethyl)-1H-1,2,4-triazole-5-carboxamide]",71
16,"Nc1ccc(CNC(=O)c2cnn(Cc3ccccc3)c2)cn1 [Example 182, N-((6-Aminopyridin-3-yl)methyl)-1-benzyl-1H-pyrazole-4-carboxamide]",> 100000
17,"Cc1cc(N)ncc1CNC(=O)c1cnn(Cc2ccccc2)c1 [Example 138, N-((6-amino-4-methylpyridin-3-yl)methyl)-1-benzyl-1H-pyrazole-4-carboxamide]",62700
18,"Cc1cccc(Cn2cc(C(=O)NCc3c(C)cc(N)nc3C)cn2)n1 [Example 86, N-((6-amino-2,4-dimethylpyridin-3-yl)methyl)-1-((6-methylpyridin-2-yl)methyl)-1H-pyrazole-4-carboxamide]",7500
19,"Cc1cc(N)nc(C)c1CNC(=O)c1cnn(Cc2coc(-c3ccccc3)n2)c1 [Example 32, N-((6-amino-2,4-dimethylpyridin-3-yl)methyl)-1-((2-phenyloxazol-4-yl)methyl)-1H-pyrazole-4-carboxamide]",41

# Source: US9290485B2, “N-((6-amino-pyridin-3-yl)methyl)-heteroaryl-carboxamides” (NOVARTIS AG, priority 2010, dated 2016)
